# Test system: gut enzymes of Southern Corn Rootworm
# Experiment: FRET peptide cleavage by coleopteran gut enzymes (COLEOP)
# Conditions: COLEOP (X); pooled FRET screening Round 1; slope of fluorescence over 10 minutes, steepest slope = 100%; representative cleavable sequences
row,Substance,% of Max Slope [%]
1,LKQ,100
2,LKS,68
3,LKT,68
4,LNK,56
5,LNR,56
6,LQK,56
7,LQR,56
8,LRN,100
9,LRQ,100
10,LRS,68
11,LRT,68
12,NIK,74
13,NIR,74
14,NLK,74
15,NLR,74
16,QIK,74
17,QIR,74
18,QLK,74
19,QLR,74
20,RIK,83
21,RIR,83
22,RLK,83
23,RLR,83
24,VIK,70
25,VIR,70
26,VLK,70
27,VLR,70

# Target: T1, pepsin or simulated human gastric fluid (SGF) (Sus scrofa, UniProt P00791)
# T1 construct: purchased Sigma P6887
# Experiment: not given
# Format: biochemical
# Conditions: not given
# T1 sequence (P00791 60-385): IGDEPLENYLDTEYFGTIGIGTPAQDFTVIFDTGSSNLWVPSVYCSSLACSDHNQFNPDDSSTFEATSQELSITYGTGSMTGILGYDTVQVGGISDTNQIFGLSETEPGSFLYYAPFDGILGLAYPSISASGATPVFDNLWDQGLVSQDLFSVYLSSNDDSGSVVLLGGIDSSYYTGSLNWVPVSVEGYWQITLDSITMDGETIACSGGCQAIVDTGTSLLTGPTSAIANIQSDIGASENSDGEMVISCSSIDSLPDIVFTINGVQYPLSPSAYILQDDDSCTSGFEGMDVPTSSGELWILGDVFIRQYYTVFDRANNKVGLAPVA
Substance,cleavability by human gastrointestinal proteases,% of Max Slope [%],"% of Max Slope, Y [%]"
AAPF [reference compound],neither FRET nor protein showed any cleavability,,
AFF,,63,
AFY,,63,
AIF,,78,
ALF,,78,
ALY,,78,
AYF,,63,
DFF,,66,
DFY,,66,
DYF,,66,
EFF,,66,
EFY,,66,
EYF,,66,
FFA,,84,
FFI,,78,
FFL,,78,
FFV,,84,
FYA,,84,
FYI,,78,
FYL,,78,
FYV,,84,
IFA,,65,
IFV,,65,
IFVALKGS (cleavable linker),,,88
IIF,,63,
ILF,,63,

Substance,cleavability by human gastrointestinal proteases,% of Max Slope [%],"% of Max Slope, Y [%]"
ILY,,63,
LFA,,65,
LFV,,65,
LFVALKGS (cleavable linker),,,76
LFVRLRGS (cleavable linker),,,74
LIF,,63,
LIY,,63,
LKLFVGS (cleavable linker),,,67
LLF,,63,
LRLFVGS (cleavable linker),,,75
LYA,,65,
LYF,,100,
LYV,,65,
LYY,,100,
VFF,,63,
VFY,,63,
VIF,,78,
VLF,,78,
VLY,,78,
VYF,,63,
YFA,,84,
YFI,,78,
YFL,,78,
YFV,,84,
YYL,,78,

# Test system: insect and/or nematode protease (X condition)
# Experiment: Round 2 and spacer FRET cleavage, X (insect) cleavage condition
# Format: biochemical
# Conditions: Round 2 FRET, X-Y combinations
# Experimental: Round 2 data from FRET molecules that represented a subset of binary combinations based on the observed top hits in Round 1 provided a hierarchical ranking of the various binary combinations. Round 2 FRET molecules were synthesized, resuspended, and tested in cleavage enzyme assays as described above in Round 1. Many combinations of binary cleavable linking peptides were tested against LEP, COLEOP and SGF conditions.
# Data from the Round 2 FRET that exemplifies the combination of both X and Y cleavability in a binary or tertiary peptide are presented in Table 6.
# To screen for potential spacers, FRET peptides were ordered as the binary peptide ALKLFVZ1Z2 and varied amino acids in positions Z1 and Z2. Some of the amino acids were screened as individuals and some were screened as pools. The peptides were re-suspended using 50% acetonitrile in water at a concentration of 2 μM of each peptide. For the one containing more than one FRET peptide, they were re-suspended so that each peptide was as 2 μM (assuming an equal portion of each one). These were then re-suspended and screened as described above for Round 1. The data does confirm that some amino acids in the Z position are more favorable than others. […] The greater the value of the slope in Table 7 the greater the activity of the amino acid when part of a spacer. The column in Table 7 labeled “Slope” indicates the speed of cleavage of the Linker.
row,Substance,"% of Max Slope, X [%]"
1,IFVALKGS (cleavable linker),69
2,LFVALKGS (cleavable linker),92
3,LFVRLRGS (cleavable linker),94
4,LKLFVGS (cleavable linker),98
5,LRLFVGS (cleavable linker),74

# Reference: patent US11447531B2, “Cleavable peptides and insecticidal and nematicidal proteins comprising same” (Vestaron Corporation, priority 2016, dated 2022)
